Assay results as given in ChEMBL document CHEMBL1201862, “PubChem BioAssay data set” (2004).
Activity calls are given as the source filed them.

Experiments:
[1] = target: T1, Mu-type opioid receptor (Homo sapiens, UniProt P35372); assay: MOR antagonists, SAR follow-up, image-based (AID 2420); type: functional;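 further: compounds added before stimulation of receptor with agonist DAMGO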
[2] = target: Beta-galactosidase (Escherichia coli, UniProt Q8VNN2); type: functional
[3] = target: T2, Delta-type opioid receptor (Homo sapiens, UniProt P41143); assay: SAR Analysis of Antagonists of the DOR Receptor using an Image-Based Assay - Set 3. [Related pubchem assays (depositor defined):AID1777, AID1785]; type: functional
T2 sequence (P41143 whole entry): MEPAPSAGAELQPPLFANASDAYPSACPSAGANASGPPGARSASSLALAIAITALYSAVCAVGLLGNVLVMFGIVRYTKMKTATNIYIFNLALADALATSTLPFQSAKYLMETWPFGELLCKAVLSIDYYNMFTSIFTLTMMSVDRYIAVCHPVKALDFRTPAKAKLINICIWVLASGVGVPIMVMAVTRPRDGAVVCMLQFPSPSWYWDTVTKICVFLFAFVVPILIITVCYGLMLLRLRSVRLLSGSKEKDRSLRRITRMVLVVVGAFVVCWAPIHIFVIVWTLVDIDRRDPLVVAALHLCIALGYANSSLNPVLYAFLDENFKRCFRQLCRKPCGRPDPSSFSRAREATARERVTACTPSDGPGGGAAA

[4] = target: T2, Delta-type opioid receptor; assay: HTS Image-Based Screen for Antagonists of the DOR Receptor. [Related pubchem assays (depositor defined):AID1777, AID1785, AID1786, AID2133]; type: functional
[5] = target: T2, Delta-type opioid receptor; assay: DOR agonists, SAR follow-up, image-based (AID 2370); type: functional
[6] = target: T2, Delta-type opioid receptor; assay: DOR antagonists, SAR follow-up, image-based (AID 2357); type: functional
[7] = target: T2, Delta-type opioid receptor; assay: HTS Image-Based Screen for Agonists of the DOR Receptor. [Related pubchem assays (depositor defined):AID1777, AID1786, AID2133]; type: functional
[8] = target: T1, Mu-type opioid receptor; assay: SAR Analysis of Antagonists of the MOR Receptor using an Image-Based Assay - Set 3. [Related pubchem assays (depositor defined):AID1777, AID1785, AID1786, AID1966, AID2133, AID2136, AID2284, AID2285, AID2420]; type: functional
[9] = target: T1, Mu-type opioid receptor; assay: MOR agonists by imaging, SAR follow-up, image-based (AID 2352); type: functional
[10] = target: T1, Mu-type opioid receptor; assay: HTS Image-Based Screen for Agonists of the MOR Receptor. [Related pubchem assays (depositor defined):AID1777, AID1785, AID1786, AID2133]; type: functional
[11] = mammalian cell cytotoxicity, dose response, cytotoxicity control, plate reader, cherry-pick samples (AID 504397); type: functional, cell-based
[12] = target: T3, CAAX prenyl protease 2 (Saccharomyces cerevisiae S288c, UniProt Q03530); type: biochemical
T3 sequence (Q03530 whole entry): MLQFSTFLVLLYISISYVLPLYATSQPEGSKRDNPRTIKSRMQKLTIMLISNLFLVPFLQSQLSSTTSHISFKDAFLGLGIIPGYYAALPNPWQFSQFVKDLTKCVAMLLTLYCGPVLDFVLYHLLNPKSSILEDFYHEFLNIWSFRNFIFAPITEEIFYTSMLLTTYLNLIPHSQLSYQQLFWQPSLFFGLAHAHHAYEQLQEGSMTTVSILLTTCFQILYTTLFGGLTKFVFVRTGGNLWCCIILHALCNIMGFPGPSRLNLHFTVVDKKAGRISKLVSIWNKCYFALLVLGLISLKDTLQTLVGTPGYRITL

[13] = target: T4, Alkaline phosphatase, tissue-nonspecific isozyme (Homo sapiens, UniProt P05186); assay: TNAP enzyme inhibition by screening hits, dose response, selectivity assay for mouse IAP inhibitor project, biochemical, human TNAP, uHTS hits (AID 488906); type: functional
T4 sequence (P05186 whole entry): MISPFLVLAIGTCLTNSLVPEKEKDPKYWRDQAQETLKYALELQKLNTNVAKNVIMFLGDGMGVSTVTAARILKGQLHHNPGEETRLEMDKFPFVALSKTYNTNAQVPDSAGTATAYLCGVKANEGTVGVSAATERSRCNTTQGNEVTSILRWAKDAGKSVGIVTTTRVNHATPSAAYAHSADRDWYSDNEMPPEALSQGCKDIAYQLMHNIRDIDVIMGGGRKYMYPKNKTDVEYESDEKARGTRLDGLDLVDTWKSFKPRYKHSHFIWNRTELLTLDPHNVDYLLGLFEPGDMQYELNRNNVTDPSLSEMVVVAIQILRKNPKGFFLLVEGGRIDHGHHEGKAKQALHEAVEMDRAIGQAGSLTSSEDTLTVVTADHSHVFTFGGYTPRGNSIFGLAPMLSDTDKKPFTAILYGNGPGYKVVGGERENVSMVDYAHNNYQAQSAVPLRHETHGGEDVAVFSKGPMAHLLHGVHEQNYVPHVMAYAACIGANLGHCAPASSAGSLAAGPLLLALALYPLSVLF

[14] = target: T5, Long-chain-fatty-acid--AMP ligase FadD28 (Mycobacterium tuberculosis, UniProt P9WQ59); assay: Fluorescence polarization aasay to screen for inhibitors that compete for the binding of FadD28 to a bisubstrate Measured in Biochemical System Using Plate Reader - 2147-01_Inhibitor_Dose_CherryPick_Activity.; type: functional, Mycobacterium tuberculosis H37Rv
T5 sequence (P9WQ59 whole entry): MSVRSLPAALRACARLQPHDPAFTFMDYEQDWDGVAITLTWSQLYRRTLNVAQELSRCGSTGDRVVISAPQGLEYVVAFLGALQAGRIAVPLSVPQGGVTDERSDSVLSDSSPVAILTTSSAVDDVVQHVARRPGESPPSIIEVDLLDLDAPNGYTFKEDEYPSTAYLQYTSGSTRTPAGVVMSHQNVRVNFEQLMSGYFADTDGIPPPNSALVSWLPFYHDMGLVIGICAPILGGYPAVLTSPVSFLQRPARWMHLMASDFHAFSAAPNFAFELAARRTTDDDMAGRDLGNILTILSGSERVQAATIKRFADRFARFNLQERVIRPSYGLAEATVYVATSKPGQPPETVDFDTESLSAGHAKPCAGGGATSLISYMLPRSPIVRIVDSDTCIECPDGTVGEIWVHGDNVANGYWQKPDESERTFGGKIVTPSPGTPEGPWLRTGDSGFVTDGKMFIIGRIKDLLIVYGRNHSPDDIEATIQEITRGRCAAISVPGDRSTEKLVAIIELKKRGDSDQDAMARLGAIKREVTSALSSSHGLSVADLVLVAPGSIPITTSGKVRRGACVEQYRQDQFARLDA

[15] = target: Intestinal-type alkaline phosphatase (Mus musculus, UniProt P24822); assay: PubChem AID 488785; type: functional
Intestinal-type alkaline phosphatase (Mus musculus, UniProt P24822), sequence (P24822 whole entry): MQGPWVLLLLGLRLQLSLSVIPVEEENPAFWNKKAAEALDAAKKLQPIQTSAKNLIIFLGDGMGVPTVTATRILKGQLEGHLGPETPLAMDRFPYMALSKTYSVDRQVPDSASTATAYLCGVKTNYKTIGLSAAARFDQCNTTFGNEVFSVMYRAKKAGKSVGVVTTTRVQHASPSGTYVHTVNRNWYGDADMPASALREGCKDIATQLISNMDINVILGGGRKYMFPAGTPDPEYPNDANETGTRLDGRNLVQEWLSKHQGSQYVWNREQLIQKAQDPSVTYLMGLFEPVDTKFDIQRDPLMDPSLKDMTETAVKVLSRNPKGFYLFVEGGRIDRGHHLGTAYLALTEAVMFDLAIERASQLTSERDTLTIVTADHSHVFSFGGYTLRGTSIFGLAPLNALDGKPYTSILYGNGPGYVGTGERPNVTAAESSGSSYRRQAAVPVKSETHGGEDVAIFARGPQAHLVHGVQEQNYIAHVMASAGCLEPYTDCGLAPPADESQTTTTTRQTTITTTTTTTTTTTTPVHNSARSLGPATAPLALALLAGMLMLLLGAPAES

[16] = target: Intestinal-type alkaline phosphatase (Homo sapiens, UniProt P09923); assay: inhibition of human intestinal alkaline phosphatase – biochemical, dose response (AID 488876); type: functional
Intestinal-type alkaline phosphatase (Homo sapiens, UniProt P09923), sequence (P09923 whole entry): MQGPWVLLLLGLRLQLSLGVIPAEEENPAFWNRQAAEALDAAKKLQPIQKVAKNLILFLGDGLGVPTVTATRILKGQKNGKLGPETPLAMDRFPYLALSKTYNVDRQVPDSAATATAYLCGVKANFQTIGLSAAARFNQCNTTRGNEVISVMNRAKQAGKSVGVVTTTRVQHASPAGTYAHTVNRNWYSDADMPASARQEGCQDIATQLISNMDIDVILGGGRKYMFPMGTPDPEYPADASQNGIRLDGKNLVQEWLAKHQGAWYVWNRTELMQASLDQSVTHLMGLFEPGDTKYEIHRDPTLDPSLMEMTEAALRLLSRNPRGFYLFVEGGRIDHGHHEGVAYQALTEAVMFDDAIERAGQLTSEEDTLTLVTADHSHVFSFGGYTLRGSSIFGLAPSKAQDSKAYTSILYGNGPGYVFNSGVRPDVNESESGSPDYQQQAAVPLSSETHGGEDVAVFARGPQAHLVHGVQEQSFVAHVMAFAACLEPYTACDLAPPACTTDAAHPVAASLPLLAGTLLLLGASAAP

[17] = target: T6, Tyrosine-protein phosphatase non-receptor type 22 (Homo sapiens, UniProt Q9Y2R2); assay: SAR LYP1 Fluorescent Assay using OMFP substrate for In Vitro dose response studies - Set 2. [Related pubchem assays (depositor defined):AID1779, AID1784, AID2140, AID449726, AID488869]; type: functional
T6 sequence (Q9Y2R2 whole entry): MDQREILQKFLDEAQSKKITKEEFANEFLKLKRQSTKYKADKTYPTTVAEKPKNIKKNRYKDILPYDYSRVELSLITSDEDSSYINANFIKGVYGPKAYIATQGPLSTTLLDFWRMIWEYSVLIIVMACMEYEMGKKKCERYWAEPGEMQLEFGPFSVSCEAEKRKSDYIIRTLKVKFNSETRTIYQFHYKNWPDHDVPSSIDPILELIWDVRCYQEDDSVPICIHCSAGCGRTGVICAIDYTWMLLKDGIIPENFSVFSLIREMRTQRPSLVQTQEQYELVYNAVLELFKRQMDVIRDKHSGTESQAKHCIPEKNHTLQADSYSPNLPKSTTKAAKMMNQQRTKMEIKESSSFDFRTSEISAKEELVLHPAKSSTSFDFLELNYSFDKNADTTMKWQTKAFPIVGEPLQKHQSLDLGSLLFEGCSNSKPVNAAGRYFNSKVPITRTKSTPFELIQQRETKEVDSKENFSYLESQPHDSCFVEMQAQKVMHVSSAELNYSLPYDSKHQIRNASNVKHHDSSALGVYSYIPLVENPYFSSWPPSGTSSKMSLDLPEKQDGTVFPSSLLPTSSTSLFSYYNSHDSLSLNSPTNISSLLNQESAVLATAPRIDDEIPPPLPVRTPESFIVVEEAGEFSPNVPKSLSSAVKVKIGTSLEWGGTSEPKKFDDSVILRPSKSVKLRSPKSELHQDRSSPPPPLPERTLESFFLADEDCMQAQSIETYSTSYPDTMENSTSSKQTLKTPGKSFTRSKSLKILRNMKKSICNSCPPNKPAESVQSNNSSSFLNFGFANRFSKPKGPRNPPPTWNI

[18] = target: Tyrosine-protein phosphatase non-receptor type 12 (Homo sapiens, UniProt Q05209); assay: SAR Selectivity Analysis of small molecule inhibitors of PEST using pCAP in a fluorescence assay. [Related pubchem assays (depositor defined):AID1779, AID1784, AID2135]; type: functional
Tyrosine-protein phosphatase non-receptor type 12, sequence (Q05209 whole entry): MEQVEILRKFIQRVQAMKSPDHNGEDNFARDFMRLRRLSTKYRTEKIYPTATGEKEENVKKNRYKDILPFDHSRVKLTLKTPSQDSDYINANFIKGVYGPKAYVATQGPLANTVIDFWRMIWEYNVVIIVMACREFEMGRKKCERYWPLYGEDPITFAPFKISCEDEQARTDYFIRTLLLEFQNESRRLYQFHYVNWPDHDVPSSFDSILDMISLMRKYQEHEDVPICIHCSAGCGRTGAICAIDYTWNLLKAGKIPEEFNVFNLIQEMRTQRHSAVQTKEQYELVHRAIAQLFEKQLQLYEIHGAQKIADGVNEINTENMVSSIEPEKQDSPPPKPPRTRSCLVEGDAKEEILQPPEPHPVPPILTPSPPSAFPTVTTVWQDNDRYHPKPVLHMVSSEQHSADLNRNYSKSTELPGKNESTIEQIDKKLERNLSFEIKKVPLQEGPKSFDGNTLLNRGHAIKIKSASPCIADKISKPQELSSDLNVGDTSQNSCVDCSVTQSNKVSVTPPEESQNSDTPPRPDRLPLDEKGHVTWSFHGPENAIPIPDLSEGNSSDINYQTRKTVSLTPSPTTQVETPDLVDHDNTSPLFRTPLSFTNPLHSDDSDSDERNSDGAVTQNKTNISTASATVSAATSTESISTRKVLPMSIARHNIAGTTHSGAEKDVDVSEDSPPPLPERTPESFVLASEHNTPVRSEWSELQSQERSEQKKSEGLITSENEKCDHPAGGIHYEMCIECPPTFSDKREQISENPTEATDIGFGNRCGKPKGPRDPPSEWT

[19] = target: T6, Tyrosine-protein phosphatase non-receptor type 22; assay: SAR LYP1 Fluorescent Assay using OMFP substrate for In Vitro dose response studies - Set 3. [Related pubchem assays (depositor defined):AID1779, AID1784, AID2140, AID2686]; type: functional
[20] = target: T6, Tyrosine-protein phosphatase non-receptor type 22; assay: SAR LYP1 Fluorescent Assay using pCAP substrate for In Vitro dose response studies - Set 2. [Related pubchem assays (depositor defined):AID1779, AID1784, AID2135, AID449727]; type: functional
[21] = target: T7, Tyrosine-protein phosphatase non-receptor type 7 (Homo sapiens, UniProt P35236); assay: HePTP (PTPN7) phosphatase inhibitor potency, SAR follow-up, biochemical, set 2 (AID 449736); type: functional
T7 sequence (P35236 whole entry): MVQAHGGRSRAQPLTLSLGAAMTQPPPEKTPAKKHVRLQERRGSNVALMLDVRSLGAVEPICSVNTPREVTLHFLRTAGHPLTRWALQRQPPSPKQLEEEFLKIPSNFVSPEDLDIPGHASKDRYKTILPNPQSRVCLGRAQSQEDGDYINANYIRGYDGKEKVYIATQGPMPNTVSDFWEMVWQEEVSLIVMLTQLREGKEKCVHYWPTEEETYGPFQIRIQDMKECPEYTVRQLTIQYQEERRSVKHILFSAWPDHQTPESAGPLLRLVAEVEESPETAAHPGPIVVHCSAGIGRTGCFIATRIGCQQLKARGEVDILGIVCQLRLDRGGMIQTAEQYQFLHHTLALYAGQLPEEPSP

[22] = target: T6, Tyrosine-protein phosphatase non-receptor type 22; assay: LYP (PTPN22) phosphatase inhibitor potency, SAR follow-up, biochemical, pCAP fluorogenic substrate, fluorescence, set 3 (AID 449727); type: functional
[23] = target: G-protein coupled receptor 55 (Homo sapiens, UniProt Q9Y2T6); assay: GPR55 antagonists, SAR follow-up, counter-screen for GPR35 antagonist project, imaging, image-based (AID 2397); type: functional
G-protein coupled receptor 55, sequence (Q9Y2T6 whole entry): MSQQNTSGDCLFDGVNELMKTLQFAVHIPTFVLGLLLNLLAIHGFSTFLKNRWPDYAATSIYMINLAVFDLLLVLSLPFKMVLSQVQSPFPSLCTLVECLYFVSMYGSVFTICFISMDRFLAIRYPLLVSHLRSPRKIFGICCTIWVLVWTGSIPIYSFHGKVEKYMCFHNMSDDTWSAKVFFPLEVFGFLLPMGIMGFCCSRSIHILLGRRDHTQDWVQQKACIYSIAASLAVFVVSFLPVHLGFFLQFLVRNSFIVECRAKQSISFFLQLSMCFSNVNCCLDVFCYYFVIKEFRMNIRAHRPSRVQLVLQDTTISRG

[24] = target: G-protein coupled receptor 35 (Homo sapiens, UniProt Q9HC97); assay: SAR Analysis for the identification of Selective Antagonists of ERK1/2 Activity in GPR35-Overexpressing U2OS Cells. [Related pubchem assays: 2079, 2058 ]; type: functional, cell-based
G-protein coupled receptor 35, sequence (Q9HC97 whole entry): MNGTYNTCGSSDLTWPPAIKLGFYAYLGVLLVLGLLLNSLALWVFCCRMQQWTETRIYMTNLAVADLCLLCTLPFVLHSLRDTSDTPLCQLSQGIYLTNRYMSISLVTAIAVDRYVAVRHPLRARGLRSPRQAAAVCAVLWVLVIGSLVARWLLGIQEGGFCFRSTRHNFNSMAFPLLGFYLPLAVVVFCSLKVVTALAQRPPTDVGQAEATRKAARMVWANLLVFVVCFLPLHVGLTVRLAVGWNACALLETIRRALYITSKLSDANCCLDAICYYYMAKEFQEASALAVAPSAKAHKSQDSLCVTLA

[25] = target: Kappa-type opioid receptor (Homo sapiens, UniProt P41145); assay: SAR analysis of small molecule agonists of the kappa opioid receptor via a luminescent beta-arrestin assay - Set 3. [Related pubchem assays (depositor defined):AID1777, AID1785, AID1786, AID1966, AID2133, AID2136, AID2284, AID2500]; type: functional
Kappa-type opioid receptor, sequence (P41145 whole entry, the tested form may be a part): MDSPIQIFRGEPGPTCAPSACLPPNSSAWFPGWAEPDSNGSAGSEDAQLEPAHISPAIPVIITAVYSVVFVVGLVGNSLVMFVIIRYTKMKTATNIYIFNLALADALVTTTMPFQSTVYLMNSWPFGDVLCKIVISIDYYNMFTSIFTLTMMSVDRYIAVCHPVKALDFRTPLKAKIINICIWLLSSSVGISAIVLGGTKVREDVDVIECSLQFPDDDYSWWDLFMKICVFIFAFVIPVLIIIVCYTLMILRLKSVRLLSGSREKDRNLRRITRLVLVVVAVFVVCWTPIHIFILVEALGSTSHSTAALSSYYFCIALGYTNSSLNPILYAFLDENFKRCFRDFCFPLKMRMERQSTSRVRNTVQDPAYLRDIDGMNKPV

[26] = target: Nucleotide-binding oligomerization domain-containing protein 1 (Homo sapiens, UniProt Q9Y239); assay: SAR analysis of compounds that inhibit NOD1 - Set 3. [Related pubchem assays (depositor defined):AID1566, AID1575, AID1578, AID1849, AID1852, AID2333, AID2335, AID2466]; type: functional
[27] = test system: HEK293; assay: SAR analysis of compounds that are cytotoxic to HEK293 - Set 3. [Related pubchem assays (depositor defined):AID1575, AID1578, AID1848, AID1849, AID2001, AID2333, AID2334, AID2335, AID2337, AID2469]; type: functional, cell-based; details: Homo sapiens
[28] = target: Nucleotide-binding oligomerization domain-containing protein 2 (Homo sapiens, UniProt Q9HC29); assay: NOD2 signaling inhibitors, analog potency, SAR follow-up, cell-based, set 3 (AID 2799); type: functional
Nucleotide-binding oligomerization domain-containing protein 2, sequence (Q9HC29 whole entry, the tested form may be a part): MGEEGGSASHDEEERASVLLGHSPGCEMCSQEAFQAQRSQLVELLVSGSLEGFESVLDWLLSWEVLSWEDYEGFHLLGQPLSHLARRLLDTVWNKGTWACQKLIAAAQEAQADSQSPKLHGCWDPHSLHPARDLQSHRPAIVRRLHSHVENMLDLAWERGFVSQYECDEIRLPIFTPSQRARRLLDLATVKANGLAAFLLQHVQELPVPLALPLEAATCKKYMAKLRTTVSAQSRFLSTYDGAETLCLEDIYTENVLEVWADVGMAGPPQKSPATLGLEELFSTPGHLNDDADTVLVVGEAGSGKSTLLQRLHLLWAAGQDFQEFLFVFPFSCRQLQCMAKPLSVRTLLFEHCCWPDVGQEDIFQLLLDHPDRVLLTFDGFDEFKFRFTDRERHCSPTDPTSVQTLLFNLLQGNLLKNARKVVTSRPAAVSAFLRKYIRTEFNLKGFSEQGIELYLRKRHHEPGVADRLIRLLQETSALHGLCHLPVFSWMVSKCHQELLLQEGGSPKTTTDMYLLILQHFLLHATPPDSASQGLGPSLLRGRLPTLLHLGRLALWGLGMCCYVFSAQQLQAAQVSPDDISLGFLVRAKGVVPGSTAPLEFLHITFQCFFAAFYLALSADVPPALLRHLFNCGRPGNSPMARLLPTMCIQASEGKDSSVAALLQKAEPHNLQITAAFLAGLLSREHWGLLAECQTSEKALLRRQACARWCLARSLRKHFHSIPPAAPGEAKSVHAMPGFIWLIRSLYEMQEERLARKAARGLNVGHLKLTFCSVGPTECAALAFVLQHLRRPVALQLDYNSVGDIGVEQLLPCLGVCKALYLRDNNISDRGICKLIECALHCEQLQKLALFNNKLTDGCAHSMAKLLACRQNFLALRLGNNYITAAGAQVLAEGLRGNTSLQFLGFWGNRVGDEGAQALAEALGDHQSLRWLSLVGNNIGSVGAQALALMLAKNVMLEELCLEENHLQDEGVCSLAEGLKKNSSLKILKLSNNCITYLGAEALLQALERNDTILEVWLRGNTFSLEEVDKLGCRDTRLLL

[29] = target: Tumor necrosis factor (Homo sapiens, UniProt P01375); assay: TNFa-triggered NF-kB activation inhibitors, SAR follow-up, cell-based, set 3 (AID 2801); type: functional
Tumor necrosis factor, sequence (P01375 whole entry): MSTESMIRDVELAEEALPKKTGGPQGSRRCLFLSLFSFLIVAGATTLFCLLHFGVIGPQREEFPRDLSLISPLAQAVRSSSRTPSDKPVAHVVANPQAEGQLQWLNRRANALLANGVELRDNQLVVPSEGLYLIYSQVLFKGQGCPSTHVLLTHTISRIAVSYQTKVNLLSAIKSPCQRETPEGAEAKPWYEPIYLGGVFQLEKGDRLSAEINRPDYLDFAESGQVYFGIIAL

T1 sequence (P35372 whole entry): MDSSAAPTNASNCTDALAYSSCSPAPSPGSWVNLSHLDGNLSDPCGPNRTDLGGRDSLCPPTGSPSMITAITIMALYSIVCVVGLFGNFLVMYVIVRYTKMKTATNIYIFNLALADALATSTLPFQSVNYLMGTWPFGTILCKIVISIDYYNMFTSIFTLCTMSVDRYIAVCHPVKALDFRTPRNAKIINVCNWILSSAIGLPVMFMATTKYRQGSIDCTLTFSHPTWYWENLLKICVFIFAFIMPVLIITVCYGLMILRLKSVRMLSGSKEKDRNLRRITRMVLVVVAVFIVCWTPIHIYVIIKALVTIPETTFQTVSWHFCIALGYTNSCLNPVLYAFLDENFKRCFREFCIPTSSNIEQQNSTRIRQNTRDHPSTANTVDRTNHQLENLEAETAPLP

## Cc1ccc(S(=O)(=O)NCc2ccc(C(=O)NCCN(Cc3ccccc3)C(C)C)cc2)cc1
[1]
  IC50: > 32 µM (inactive)
[2]
  EC50: > 31.5 µM (inactive)
[3]
  IC50: > 32 µM (inactive)
[4]
  IC50: > 32 µM (inactive)
[5]
  EC50: > 32 µM (inactive)
[6]
  IC50: > 32 µM (inactive)
[7]
  EC50: > 32 µM (inactive)
[8]
  IC50: 14 µM (inactive)
[9]
  EC50: > 32 µM (inactive)
[10]
  EC50: > 32 µM (inactive)

## O=C(c1cn(-c2ccccc2)nc1-c1cccs1)N1CCN(c2ccccn2)CC1
[11]
  AC50: > 350 µM (inactive)
[12]
  AC50: 3.87 µM (active)

## O=C(NN1C(=O)/C(=C/c2ccc(O)c(O)c2)SC1=S)c1ccccc1
[13]
  IC50: 20 µM (active)
[14]
  AC50: 1.41 µM (active)
[15]
  IC50: 1.28 µM (active)
[16]
  IC50: > 100 µM (inactive)

## O=C(O)COc1ccc(Nc2ccccc2)cc1
[17]
  IC50: > 100 µM (inactive)
[18]
  IC50: 45.1 µM (active)
[19]
  IC50: > 100 µM (inactive)
[20]
  IC50: > 100 µM (inactive)
[21]
  IC50: 0.465 µM (active)
[22]
  IC50: > 100 µM (inactive)

## Cc1c(C(=O)Nc2ccc3c(c2)OCCO3)sc2ncnc(N3CCC(C)CC3)c12
[23]
  IC50: 21.4 µM (inactive)
[24]
  IC50: 20.6 µM (not active)

## c1ccc(CSc2nnc(-c3ccccn3)n2Cc2cccnc2)cc1
[25]
  EC50: > 20 µM (inactive)

## Cc1ccccc1S(=O)(=O)n1c(N)nc2ccccc21
[26]
  IC50: > 20 µM (inactive)
[27]
  IC50: > 20 µM (inactive)
[28]
  IC50: > 20 µM (inactive)
[29]
  IC50: > 20 µM (inactive)
